Data: the supplement of paper PMC10307832

Legend:
Assay in all cases: relative viability (nuclei count vs DMSO), 5 days (fraction); higher = more cells survive
NCI-H2405 = tested on: NCI-H2405
Procedure, shortened: (§1)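 For relative viability, nuclei counts in treated wells were divided by those in vehicle wells. Lung cancer cell lines had been pin-tool dosed in 1536-well plates the day after seeding and cultured for 5 days, then fixed and stained in one step (final 0.05% Triton X-100, 1% formaldehyde, 1 ug/ml Hoechst) and imaged at 4×. Doses were one drug alone or a fixed anchor-drug dose plus five library-drug doses (not always all listed) in √10 steps, and values are duplicate-plate medians.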

NCI-H1734 = tested on: NCI-H1734
Procedure, shortened: as §1

NCI-H2170 = tested on: NCI-H2170
Procedure, shortened: as §1

NCI-H647 = tested on: NCI-H647
Procedure, shortened: as §1

NCI-H441 = tested on: NCI-H441
Procedure, shortened: as §1

LOU-NH91 = tested on: LOU-NH91
Procedure, shortened: as §1

H3255 = tested on: H3255
Procedure, shortened: as §1

201T = tested on: 201T
Procedure, shortened: as §1

NCI-H1563 = tested on: NCI-H1563
Procedure, shortened: as §1

RERF-LC-KJ = tested on: RERF-LC-KJ
Procedure, shortened: as §1

NCI-H2085 = tested on: NCI-H2085
Procedure, shortened: as §1

## CC1(C)CCC(c2ccc(Cl)cc2)=C(CN2CCN(c3ccc(C(=O)NS(=O)(=O)c4ccc(N[C@H](CCN5CCOCC5)CSc5ccccc5)c(S(=O)(=O)C(F)(F)F)c4)cc3)CC2)C1 [Navitoclax] + COc1cccc2cc(-c3nc([C@H]4CC[C@H](C(=O)O)CC4)n4ncnc(N)c34)[nH]c12 [OSI-027] (partner 0.5 µM)
NCI-H2405; first compound 0.005 µM
  relative viability: 0.664
NCI-H2405; first compound 0.01581 µM
  relative viability: 0.682
NCI-H2405; first compound 0.05 µM
  relative viability: 0.644
NCI-H2405; first compound 0.1581 µM
  relative viability: 0.632
NCI-H2405; first compound 0.5 µM
  relative viability: 0.558
NCI-H1734; first compound 0.005 µM
  relative viability: 0.617
NCI-H1734; first compound 0.01581 µM
  relative viability: 0.822
NCI-H1734; first compound 0.1581 µM
  relative viability: 0.53
NCI-H1734; first compound 0.5 µM
  relative viability: 0.622
NCI-H2170; first compound 0.005 µM
  relative viability: 0.669
NCI-H2170; first compound 0.01581 µM
  relative viability: 0.814
NCI-H2170; first compound 0.05 µM
  relative viability: 0.787
NCI-H2170; first compound 0.1581 µM
  relative viability: 0.647
NCI-H2170; first compound 0.5 µM
  relative viability: 0.551
NCI-H647; first compound 0.005 µM
  relative viability: 0.674
NCI-H647; first compound 0.01581 µM
  relative viability: 0.738
NCI-H647; first compound 0.05 µM
  relative viability: 0.891
NCI-H647; first compound 0.1581 µM
  relative viability: 0.611
NCI-H647; first compound 0.5 µM
  relative viability: 0.597
NCI-H441; first compound 0.005 µM
  relative viability: 0.732
NCI-H441; first compound 0.01581 µM
  relative viability: 0.635
NCI-H441; first compound 0.05 µM
  relative viability: 0.58
NCI-H441; first compound 0.1581 µM
  relative viability: 0.56
NCI-H441; first compound 0.5 µM
  relative viability: 0.849
LOU-NH91; first compound 0.005 µM
  relative viability: 0.775
LOU-NH91; first compound 0.01581 µM
  relative viability: 0.76
LOU-NH91; first compound 0.05 µM
  relative viability: 0.699
LOU-NH91; first compound 0.1581 µM
  relative viability: 0.755
LOU-NH91; first compound 0.5 µM
  relative viability: 0.661
H3255; first compound 0.005 µM
  relative viability: 0.629
H3255; first compound 0.01581 µM
  relative viability: 0.643
H3255; first compound 0.05 µM
  relative viability: 0.568
H3255; first compound 0.1581 µM
  relative viability: 0.67
H3255; first compound 0.5 µM
  relative viability: 0.611
201T; first compound 0.005 µM
  relative viability: 0.73
201T; first compound 0.01581 µM
  relative viability: 0.805
201T; first compound 0.05 µM
  relative viability: 0.392
201T; first compound 0.1581 µM
  relative viability: 0.707
201T; first compound 0.5 µM
  relative viability: 0.647
NCI-H1563; first compound 0.005 µM
  relative viability: 0.737
NCI-H1563; first compound 0.01581 µM
  relative viability: 0.809
NCI-H1563; first compound 0.05 µM
  relative viability: 0.756
NCI-H1563; first compound 0.1581 µM
  relative viability: 0.824
NCI-H1563; first compound 0.5 µM
  relative viability: 0.812
RERF-LC-KJ; first compound 0.005 µM
  relative viability: 0.568
RERF-LC-KJ; first compound 0.01581 µM
  relative viability: 0.633
RERF-LC-KJ; first compound 0.05 µM
  relative viability: 0.498
RERF-LC-KJ; first compound 0.1581 µM
  relative viability: 0.599
RERF-LC-KJ; first compound 0.5 µM
  relative viability: 0.616
NCI-H2085; first compound 0.005 µM
  relative viability: 0.664
NCI-H2085; first compound 0.01581 µM
  relative viability: 0.871
NCI-H2085; first compound 0.05 µM
  relative viability: 0.544
NCI-H2085; first compound 0.1581 µM
  relative viability: 0.846
